From PubChem BioAssay (NCI)
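A five-concentration, 48-hour dose response in 96-well plates underlies each endpoint, interpolated linearly between surrounding concentrations. TGI: concentration producing complete growth inhibition.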

Assays:
Experiment in all cases: NCI tumour cell line growth inhibition, 48 h
HOP-92 NSCLC = system: HOP-92 NSCLC
NCI-H226 lung = system: NCI-H226 lung
TK-10 renal = system: TK-10 renal
SK-MEL-28 melanoma = system: SK-MEL-28 melanoma
SNB-75 CNS = system: SNB-75 CNS
SK-OV-3 ovarian = system: SK-OV-3 ovarian
HL-60(TB) leukemia = system: HL-60(TB) leukemia
786-0 renal = system: 786-0 renal
OVCAR-5 ovarian = system: OVCAR-5 ovarian
K-562 leukemia = system: K-562 leukemia
OVCAR-4 ovarian = system: OVCAR-4 ovarian
HCT-116 colon = system: HCT-116 colon
DMS 114 small cell lung = system: DMS 114 small cell lung
CAKI-1 renal = system: CAKI-1 renal
COLO 205 colon = system: COLO 205 colon
HOP-18 NSCLC = system: HOP-18 NSCLC
MALME-3M melanoma = system: MALME-3M melanoma
SF-539 CNS = system: SF-539 CNS
SF-295 CNS = system: SF-295 CNS
M14 melanoma = system: M14 melanoma
KM12 colon = system: KM12 colon
MOLT-4 leukemia = system: MOLT-4 leukemia
U251 CNS = system: U251 CNS
NCI-H23 lung = system: NCI-H23 lung
SN12C renal = system: SN12C renal
RPMI-8226 leukemia = system: RPMI-8226 leukemia
HCT-15 colon = system: HCT-15 colon
NCI-H460 lung = system: NCI-H460 lung
DLD-1 colon = system: DLD-1 colon
DMS 273 small cell lung = system: DMS 273 small cell lung
HT29 colon = system: HT29 colon
A498 renal = system: A498 renal
IGROV1 ovarian = system: IGROV1 ovarian
NCI-H522 lung = system: NCI-H522 lung
A549 NSCLC = system: A549 NSCLC
SK-MEL-5 melanoma = system: SK-MEL-5 melanoma
SK-MEL-2 melanoma = system: SK-MEL-2 melanoma
M19-MEL melanoma = system: M19-MEL melanoma
HCC-2998 colon = system: HCC-2998 colon
CCRF-CEM leukemia = system: CCRF-CEM leukemia
LOX IMVI melanoma = system: LOX IMVI melanoma
OVCAR-8 ovarian = system: OVCAR-8 ovarian
SNB-19 CNS = system: SNB-19 CNS
UACC-62 melanoma = system: UACC-62 melanoma
EKVX NSCLC = system: EKVX NSCLC
LXFL 529 NSCLC = system: LXFL 529 NSCLC
HOP-62 NSCLC = system: HOP-62 NSCLC
SW-620 colon = system: SW-620 colon
KM20L2 colon = system: KM20L2 colon
SF-268 CNS = system: SF-268 CNS
OVCAR-3 ovarian = system: OVCAR-3 ovarian
UO-31 renal = system: UO-31 renal
SNB-78 CNS = system: SNB-78 CNS
UACC-257 melanoma = system: UACC-257 melanoma
RXF 393 renal = system: RXF 393 renal
SR leukemia = system: SR leukemia
ACHN renal = system: ACHN renal

`CCCC(=O)c1ccc2c(ccc(=O)n2C)c1` was tested, and the TGI (HOP-92 NSCLC) was > 100 µM, the TGI (NCI-H226 lung) was > 100 µM and the TGI (TK-10 renal) was > 100 µM. For the same molecule, the TGI (SK-MEL-28 melanoma) was > 100 µM, the TGI (SNB-75 CNS) was 92.3 µM and the TGI (SK-OV-3 ovarian) was > 100 µM. The TGI (HL-60(TB) leukemia) was > 100 µM, the TGI (786-0 renal) was > 100 µM and the TGI (OVCAR-5 ovarian) was > 100 µM. For the same molecule, the TGI (K-562 leukemia) was > 100 µM, the TGI (OVCAR-4 ovarian) was > 100 µM and the TGI (HCT-116 colon) was > 100 µM. The TGI (DMS 114 small cell lung) was > 100 µM, the TGI (CAKI-1 renal) was > 100 µM and the TGI (COLO 205 colon) was > 100 µM. For the same molecule, the TGI (HOP-18 NSCLC) was > 100 µM, the TGI (MALME-3M melanoma) was > 100 µM and the TGI (SF-539 CNS) was > 100 µM. For the same molecule, the TGI (SF-295 CNS) was > 100 µM, the TGI (M14 melanoma) was > 100 µM and the TGI (KM12 colon) was > 100 µM. For the same molecule, the TGI (MOLT-4 leukemia) was > 100 µM, the TGI (U251 CNS) was > 100 µM and the TGI (NCI-H23 lung) was > 100 µM. The TGI (SN12C renal) was > 100 µM, the TGI (RPMI-8226 leukemia) was > 100 µM and the TGI (HCT-15 colon) was > 100 µM. For the same molecule, the TGI (NCI-H460 lung) was > 100 µM, the TGI (DLD-1 colon) was > 100 µM and the TGI (DMS 273 small cell lung) was > 100 µM. The TGI (HT29 colon) was > 100 µM, the TGI (A498 renal) was > 100 µM and the TGI (IGROV1 ovarian) was > 100 µM. The TGI (NCI-H522 lung) was > 100 µM, the TGI (A549 NSCLC) was > 100 µM and the TGI (SK-MEL-5 melanoma) was > 100 µM. For the same molecule, the TGI (SK-MEL-2 melanoma) was > 100 µM, the TGI (M19-MEL melanoma) was > 100 µM and the TGI (HCC-2998 colon) was > 100 µM. The TGI (CCRF-CEM leukemia) was > 100 µM, the TGI (LOX IMVI melanoma) was > 100 µM and the TGI (OVCAR-8 ovarian) was > 100 µM. The TGI (SNB-19 CNS) was > 100 µM, the TGI (UACC-62 melanoma) was > 100 µM and the TGI (EKVX NSCLC) was > 100 µM. For the same molecule, the TGI (LXFL 529 NSCLC) was > 100 µM, the TGI (HOP-62 NSCLC) was > 100 µM and the TGI (SW-620 colon) was > 100 µM. The TGI (KM20L2 colon) was > 100 µM, the TGI (SF-268 CNS) was > 100 µM and the TGI (OVCAR-3 ovarian) was > 100 µM.

For `CCOC(=O)C1(c2ccccc2)CCCNCC1` (configuration not stated), the TGI (HOP-92 NSCLC) was > 100 µM, the TGI (NCI-H226 lung) was > 100 µM and the TGI (TK-10 renal) was > 100 µM. The TGI (SK-MEL-28 melanoma) was > 100 µM, the TGI (SNB-75 CNS) was > 100 µM and the TGI (SK-OV-3 ovarian) was > 100 µM. For the same molecule, the TGI (HL-60(TB) leukemia) was > 100 µM, the TGI (UO-31 renal) was > 100 µM and the TGI (786-0 renal) was > 100 µM. The TGI (OVCAR-5 ovarian) was > 100 µM, the TGI (K-562 leukemia) was > 100 µM and the TGI (OVCAR-4 ovarian) was > 100 µM. For the same molecule, the TGI (HCT-116 colon) was > 100 µM, the TGI (CAKI-1 renal) was > 100 µM and the TGI (COLO 205 colon) was > 100 µM. The TGI (HOP-18 NSCLC) was > 100 µM, the TGI (MALME-3M melanoma) was > 100 µM and the TGI (SF-295 CNS) was > 100 µM. For the same molecule, the TGI (M14 melanoma) was > 100 µM, the TGI (KM12 colon) was > 100 µM and the TGI (MOLT-4 leukemia) was > 100 µM. The TGI (U251 CNS) was > 100 µM, the TGI (NCI-H23 lung) was > 100 µM and the TGI (SN12C renal) was > 100 µM. For the same molecule, the TGI (RPMI-8226 leukemia) was > 100 µM, the TGI (HCT-15 colon) was > 100 µM and the TGI (NCI-H460 lung) was > 100 µM. The TGI (DLD-1 colon) was > 100 µM, the TGI (DMS 273 small cell lung) was > 100 µM and the TGI (HT29 colon) was > 100 µM. For the same molecule, the TGI (A498 renal) was > 100 µM, the TGI (IGROV1 ovarian) was > 100 µM and the TGI (NCI-H522 lung) was > 100 µM. The TGI (SNB-78 CNS) was > 100 µM, the TGI (A549 NSCLC) was > 100 µM and the TGI (SK-MEL-5 melanoma) was > 100 µM. The TGI (SK-MEL-2 melanoma) was > 100 µM, the TGI (M19-MEL melanoma) was > 100 µM and the TGI (UACC-257 melanoma) was > 100 µM. The TGI (HCC-2998 colon) was > 100 µM, the TGI (CCRF-CEM leukemia) was > 100 µM and the TGI (LOX IMVI melanoma) was > 100 µM. The TGI (OVCAR-8 ovarian) was > 100 µM, the TGI (RXF 393 renal) was > 100 µM and the TGI (SNB-19 CNS) was > 100 µM. The TGI (UACC-62 melanoma) was > 100 µM, the TGI (EKVX NSCLC) was > 100 µM and the TGI (LXFL 529 NSCLC) was > 100 µM. The TGI (SR leukemia) was 88.8 µM, the TGI (HOP-62 NSCLC) was > 100 µM and the TGI (ACHN renal) was > 100 µM. The TGI (SW-620 colon) was > 100 µM, the TGI (KM20L2 colon) was > 100 µM and the TGI (SF-268 CNS) was > 100 µM. The TGI (OVCAR-3 ovarian) was > 100 µM.

With `O=C1[C@H]2ON(c3ccccc3)C(c3ccc(Cl)cc3Cl)[C@H]2C(=O)N1c1ccc(Cc2ccc(N3C(=O)[C@@H]4ON(c5ccccc5)C(c5ccc(Cl)cc5Cl)[C@@H]4C3=O)cc2)cc1` (some centres not stated) the TGI (HOP-92 NSCLC) was > 100 µM, the TGI (NCI-H226 lung) was > 100 µM and the TGI (TK-10 renal) was > 100 µM. The TGI (SK-MEL-28 melanoma) was > 100 µM, the TGI (SNB-75 CNS) was > 100 µM and the TGI (SK-OV-3 ovarian) was > 100 µM. For the same molecule, the TGI (HL-60(TB) leukemia) was > 100 µM, the TGI (UO-31 renal) was > 100 µM and the TGI (786-0 renal) was > 100 µM. The TGI (OVCAR-5 ovarian) was > 100 µM, the TGI (K-562 leukemia) was > 100 µM and the TGI (OVCAR-4 ovarian) was > 100 µM. For the same molecule, the TGI (HCT-116 colon) was > 100 µM, the TGI (DMS 114 small cell lung) was > 100 µM and the TGI (CAKI-1 renal) was > 100 µM. For the same molecule, the TGI (COLO 205 colon) was > 100 µM, the TGI (HOP-18 NSCLC) was > 100 µM and the TGI (MALME-3M melanoma) was > 100 µM. For the same molecule, the TGI (SF-539 CNS) was > 100 µM, the TGI (SF-295 CNS) was > 100 µM and the TGI (M14 melanoma) was 69 µM. The TGI (KM12 colon) was > 100 µM, the TGI (MOLT-4 leukemia) was > 100 µM and the TGI (U251 CNS) was > 100 µM. For the same molecule, the TGI (NCI-H23 lung) was > 100 µM, the TGI (SN12C renal) was > 100 µM and the TGI (RPMI-8226 leukemia) was > 100 µM. The TGI (HCT-15 colon) was > 100 µM, the TGI (NCI-H460 lung) was > 100 µM and the TGI (DLD-1 colon) was > 100 µM. The TGI (DMS 273 small cell lung) was > 100 µM, the TGI (HT29 colon) was > 100 µM and the TGI (A498 renal) was > 100 µM. For the same molecule, the TGI (IGROV1 ovarian) was > 100 µM, the TGI (NCI-H522 lung) was > 100 µM and the TGI (SNB-78 CNS) was > 100 µM. For the same molecule, the TGI (A549 NSCLC) was > 100 µM, the TGI (SK-MEL-5 melanoma) was > 100 µM and the TGI (SK-MEL-2 melanoma) was > 100 µM. For the same molecule, the TGI (M19-MEL melanoma) was > 100 µM, the TGI (UACC-257 melanoma) was > 100 µM and the TGI (HCC-2998 colon) was > 100 µM. The TGI (CCRF-CEM leukemia) was > 100 µM, the TGI (LOX IMVI melanoma) was > 100 µM and the TGI (OVCAR-8 ovarian) was > 100 µM. For the same molecule, the TGI (SNB-19 CNS) was > 100 µM, the TGI (UACC-62 melanoma) was > 100 µM and the TGI (EKVX NSCLC) was > 100 µM. For the same molecule, the TGI (LXFL 529 NSCLC) was > 100 µM, the TGI (SR leukemia) was > 100 µM and the TGI (HOP-62 NSCLC) was > 100 µM. For the same molecule, the TGI (ACHN renal) was > 100 µM, the TGI (SW-620 colon) was > 100 µM and the TGI (KM20L2 colon) was > 100 µM. The TGI (SF-268 CNS) was > 100 µM and the TGI (OVCAR-3 ovarian) was > 100 µM.
